We go through 22 molecules from patent publication US20040242660A1, “Substituted oxazolidinones for combinational therapy” (priority 2001, published 2004).

Test [1] relates to thrombus in the carotid artery of rats. Briefly: Rat thrombosis model (FeCl3-induced carotid artery thrombus), combinations. Type of test: in vivo. To be noted: 1 mg/kg of each active ingredient; for Reduction in thrombus weight after oral treatment: 10 rats per group; for Reduction in thrombus weight after oral treatment / Statistical significance of the reduction in thrombus weight (Student's t-test): oral; for Statistical significance of the reduction in thrombus weight (Student's t-test): p<0.05 regarded as significant; for Antithrombotic effect: single dosage or combination. How it is done:
a) In vivo Investigations in a Rat Thrombosis Model The carotid artery of rats (HSD CPB:WU, Harlan Winkelmann) was exposed under anesthesia. A piece of filter paper impregnated with an aqueous 10% strength FeCl3 solution (dissolved in 1N aqueous hydrochloric acid) was cautiously pushed underneath the exposed vessel in accordance with the method described by Kurz et al. […] After 3 minutes, the piece of filter paper was removed. The carotid artery was removed after 15 minutes, and the thrombus was detached and immediately weighed. […] The animals in the control group had been treated with the corresponding solvent. The statistical significance was calculated using Student's t-test. Values with p<0.05 are regarded as a statistically significant effect (Medical Statistics, M J Campbell, […], Second Edition, John Wiley & Sons).

The test system of test [2] is thrombus formation in an arteriovenous shunt. The test can be described thus: Arteriovenous shunt model (rat), antithrombotic effect. Format: in vivo. The protocol:
b.1) Arteriovenous Shunt Model (Rat) Fasting male rats (strain: HSD CPB:WU) weighing 200-250 g were anesthetized with a Rompun/Ketavet solution (12 mg/kg/50 mg/kg). Thrombus formation was induced in an arteriovenous shunt by a method based on that described by Christopher N. Berry et al., Br. J. Pharmacol. (1994), 113, 1209-1214. For this purpose, the left jugular vein and the right carotid artery were exposed. An extracorporeal shunt was formed between the two vessels using a 10 cm-long polyethylene tube (PE 60). This polyethylene tube was secured in the middle by tying in a further 3 cm-long polyethylene tube (PE 160) which contained a roughened nylon thread forming a loop to produce a thrombogenic surface. The extracorporeal circulation was maintained for 15 minutes. The shunt was then removed and the nylon thread with the thrombus was immediately weighed. The blank weight of the nylon thread had been found before the start of the experiment. The test substances were administered either intravenously through the tail vein or orally by gavage to conscious animals before setting up the extracorporeal circulation.

In another test the target is human factor Xa (FXa) (Homo sapiens, UniProt P00742). Briefly: Measurement of factor Xa inhibition (chromogenic substrate). Type of test: biochemical. To be noted: factor Xa inhibition. How it is done:
a.1) Measurement of Factor Xa Inhibition
In this case, factor Xa eliminates p-nitroaniline from the chromogenic substrate.
The test substances were dissolved in various concentrations in DMSO and incubated with human FXa (0.5 nmol/l dissolved in 50 mmol/l tris buffer [C,C,C-tris(hydroxymethyl)-aminomethane], 150 mmol/l NaCl, 0.1% BSA (bovine serum albumine), pH=8,3) at 25° C. for 10 minutes. Pure DMSO serves as control.

The mark [3] stands for this setting: intravenous administration, read-out: ED50 [mg/kg] i.v.
The mark [4] stands for this setting: oral administration, read-out: ED50 [mg/kg] p.o.

One may read the IC50 as the concentration that inhibits the measured activity by half. Read a high IC50 as a need for much substance.

Where two headings read alike, the source gives them in different places.

Chain of human factor Xa (FXa) (P00742 235-488 limits assumed): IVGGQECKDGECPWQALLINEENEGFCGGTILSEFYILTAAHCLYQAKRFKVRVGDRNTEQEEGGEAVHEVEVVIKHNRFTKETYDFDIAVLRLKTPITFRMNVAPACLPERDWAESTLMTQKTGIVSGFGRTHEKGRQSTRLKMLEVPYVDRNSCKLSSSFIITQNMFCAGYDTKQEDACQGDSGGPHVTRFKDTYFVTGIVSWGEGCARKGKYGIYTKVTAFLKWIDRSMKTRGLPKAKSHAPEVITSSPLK
Chain of human factor Xa (FXa) (P00742 41-179 partner limits assumed): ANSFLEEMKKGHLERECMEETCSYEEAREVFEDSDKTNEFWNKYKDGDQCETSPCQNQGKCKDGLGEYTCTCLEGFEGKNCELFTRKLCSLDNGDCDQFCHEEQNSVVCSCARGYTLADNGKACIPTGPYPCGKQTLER

Regarding `COC(=O)[C@H](c1ccccc1Cl)N1CCc2sccc2C1` [Clopidogrel, clopidogrel, reference compound], in test [1], the “Reduction in thrombus weight after oral treatment” value worked out at 28%, the “Statistical significance of the reduction in thrombus weight (Student's t-test)” value is “no effect (p > 0.05)” and the “Antithrombotic effect” value was “inactive”. On to `O=C(NC[C@H]1CN(c2ccc(N3CCOCC3)c(F)c2)C(=O)O1)c1ccc(Cl)s1` [Example 1, 5-chloro-N-{[(5S)-3-(3-fluoro-4-morpholinophenyl)-2-oxo-1,3-oxazolidin-5-yl]methyl}-2-thiophenecarboxamide], for which, in test [2] (setting [3]), the ED50 was determined as 10 mg/kg. Consider `O=C(NC[C@H]1CN(c2ccc(N3CCCC3=O)cc2)C(=O)O1)c1ccc(Cl)s1` [Example 17, 5-Chloro-N-({(5S)-2-oxo-3-[4-(2-oxo-1-pyrrolidinyl)phenyl]-1,3-oxazolidin-5-yl}methyl)-2-thiophenecarboxamide], for which the ED50 in test [2] (setting [3]) was 6 mg/kg. As for `O=C(NC[C@H]1CN(c2ccc(N3CCOCC3=O)cc2)C(=O)O1)c1ccc(Cl)s1` [Example 44, 5-Chloro-N-({(5S)-2-oxo-3-[4-(3-oxo-4-morpholinyl)phenyl]-1,3-oxazolidin-5-yl}methyl)-2-thiophenecarboxamide], the ED50 in test [2] (setting [4]) amounted to 3 mg/kg. Also, in test [1], the “Reduction in thrombus weight after oral treatment” value is listed as 22%, the “Statistical significance of the reduction in thrombus weight (Student's t-test)” value was “no effect (p > 0.05)” and the “Antithrombotic effect” value was “inactive”. In the case of `O=C(NCC1CN(c2ccc(N3CCOCC3=O)c(F)c2)C(=O)O1)c1ccc(Cl)s1` (stereo not shown) [Example 95, 5-Chloro-N-({3-[3-fluoro-4-(3-oxo-4-morpholinyl)phenyl]-2-oxo-1,3-oxazolidin-5-yl}methyl)-2-thiophenecarboxamide], the ED50 in test [2] (setting [3]) worked out at 3 mg/kg. As for `O=C(NCC1CN(c2ccc(N3CCOCC3=O)c(C(F)(F)F)c2)C(=O)O1)c1ccc(Cl)s1` (stereo not shown) [Example 114, 5-Chloro-N-({2-oxo-3-[4-(3-oxo-4-morpholinyl)-3-(trifluoromethyl)phenyl]-1,3-oxazolidin-5-yl}methyl)-2-thiophenecarboxamide], the ED50 in test [2] (setting [3]) was determined as 3 mg/kg. The same measure, in the same setting: for `Cc1cc(N2CC(CNC(=O)c3ccc(Cl)s3)OC2=O)ccc1N1CCOCC1=O` (stereo not shown) [Example 115, 5-Chloro-N-({3-[3-methyl-4-(3-oxo-4-morpholinyl)phenyl]-2-oxo-1,3-oxazolidin-5-yl}methyl)-2-thiophenecarboxamide] the value was 3 mg/kg.

Regarding `Nc1cc(N2CC(CNC(=O)c3ccc(Cl)s3)OC2=O)ccc1N1CCOCC1=O` (stereo not shown) [Example 123, N-({3-[3-Amino-4-(3-oxo-4-morpholinyl)phenyl]-2-oxo-1,3-oxazolidin-5-yl}-methyl)-5-chloro-2-thiophenecarboxamide], the ED50 in test [2] (setting [4]) came out at 3 mg/kg. Molecule `NCC(=O)Nc1ccc(N2CC(CNC(=O)c3ccc(Cl)s3)OC2=O)cc1` (stereo not shown) [Example 150, 5-Chloro-N-({3-[4-(glycylamino)phenyl]-2-oxo-1,3-oxazolidin-5-yl}methyl)-2-thiophenecarboxamide] displayed an IC50 on human factor Xa (FXa) of 2000 nM. That is a single-digit micromolar value.

Consider `NCC1CN(c2ccc(N3CCCC3=O)cc2)C(=O)O1` (stereo not shown) [Example 151, 5-(Aminomethyl)-3-[4-(2-oxo-1-pyrrolidinyl)phenyl]-1,3-oxazolidin-2-one], for which it took 2000 nM to reach half-maximal inhibition on human factor Xa (FXa) (IC50). At human factor Xa (FXa), `CC(=O)NCc1ccc(N2CC(CNC(=O)c3ccc(Cl)s3)OC2=O)cc1` (stereo not shown) [Example 153, N-[(3-{4-[(Acetylamino)methyl]phenyl}-2-oxo-1,3-oxazolidin-5-yl)methyl]-5-chloro-2-thiophenecarboxamide] showed an IC50 of 600 nM.

Consider `NC(=O)NCc1ccc(N2CC(CNC(=O)c3ccc(Cl)s3)OC2=O)cc1` (stereo not shown) [Example 154, N-{[3-(4-{[(Aminocarbonyl)amino]methyl}phenyl)-2-oxo-1,3-oxazolidin-5-yl]-methyl}-5-chloro-2-thiophenecarboxamide], for which the 50% inhibitory concentration (IC50) on human factor Xa (FXa) is 1300 nM.

On human factor Xa (FXa), `CC(=O)Nc1ccc(N2CC(CNC(=O)c3ccc(Cl)s3)OC2=O)cc1` (stereo not shown) [Example 155, N-({3-[4-(Acetylamino)phenyl]-2-oxo-1,3-oxazolidin-5-yl}methyl)-5-chloro-2-thiophenecarboxamide] yielded an IC50 of 1200 nM.

The molecule `O=C(Nc1ccc(N2CC(CNC(=O)c3ccc(Cl)s3)OC2=O)cc1)c1cccs1` (stereo not shown) [Example 156, 5-Chloro-N-[(2-oxo-3-{4-[(2-thienylcarbonyl)amino]phenyl}-1,3-oxazolidin-5-yl)methyl]-2-thiophenecarboxamide] came in with an IC50 at human factor Xa (FXa) of 1300 nM. The IC50 values of the last two molecules are within 1.5-fold of each other. On the same count and under the same terms, for `COCC(=O)Nc1ccc(N2CC(CNC(=O)c3ccc(Cl)s3)OC2=O)cc1` (stereo not shown) [Example 157, 5-Chloro-N-[(3-{4-[(methoxyacetyl)amino]phenyl}-2-oxo-1,3-oxazolidin-5-yl)-methyl]-2-thiophenecarboxamide] the value was 730 nM; for `Cc1noc(C)c1C(=O)Nc1ccc(N2CC(CNC(=O)c3ccc(Cl)s3)OC2=O)cc1` (stereo not shown) [Example 158, N-{4-[5-({[(5-Chloro-2-thienyl)carbonyl]amino}methyl)-2-oxo-1,3-oxazolidin-3-yl]phenyl}-3,5-dimethyl-4-isoxazolecarboxamide], 460 nM.

On human factor Xa (FXa), `O=C(NCC1CN(c2ccc(NS(=O)(=O)CCCCl)cc2)C(=O)O1)c1ccc(Cl)s1` (stereo not shown) [Example 159, 5-Chloro-N-{[3-(4-{[(3-chloropropyl)sulfonyl]amino}phenyl)-2-oxo-1,3-oxazolidin-5-yl]methyl}-2-thiophenecarboxamide] showed a concentration for half-maximal inhibition (IC50) of 1700 nM.

With `O=C(NCC1CN(c2ccc(N3CCCS3(=O)=O)cc2)C(=O)O1)c1ccc(Cl)s1` (stereo not shown) [Example 160, 5-Chloro-N-({3-[4-(1,1-dioxido-2-isothiazolidinyl)phenyl]-2-oxo1,3-oxazolidin-5-yl}methyl)-2-thiophenecarboxamide], on human factor Xa (FXa), the IC50 is 140 nM. For `O=C(NC[C@H]1CN(c2ccc(N3CCCCC3=O)cc2)C(=O)O1)c1ccc(Cl)s1` [Example 162, 5-Chloro-N-({(5S)-2-oxo-3-[4-(2-oxo-1-piperidinyl)phenyl]-1,3-oxazolidin-5-yl}-methyl)-2-thiophenecarboxamide], the ED50 in test [2] (setting [3]) came out at 3 mg/kg. At human factor Xa (FXa), this molecule returned an IC50 of 2.8 nM. On human factor Xa (FXa), `O=C(NC[C@H]1CN(c2ccc(N3CCC3=O)cc2)C(=O)O1)c1ccc(Cl)s1` [Example 164, 5-Chloro-N-({(5S)-2-oxo-3-[4-(2-oxo-1-azetidinyl)phenyl]-1,3-oxazolidin-5-yl}-methyl)-2-thiophenecarboxamide] registered an IC50 of 380 nM. For `CC(C)(C)OC(=O)N1CC(=O)N(c2ccc(N3CC(CNC(=O)c4ccc(Cl)s4)OC3=O)cc2)C(=O)C1` (stereo not shown) [Example 165, tert-Butyl 4-{4-[5-({[(5-chloro-2-thienyl)carbonyl]amino}methyl)-2-oxo-1,3-oxazolidin-3-yl]phenyl}-3,5-dioxo-1-piperazinecarboxylate], half-maximal inhibition against human factor Xa (FXa) (IC50) was put at 2000 nM. This IC50 lies about 5.3-fold higher than the previous one.

At human factor Xa (FXa), `O=C(NCC1CN(c2ccc(S(=O)(=O)N3CCCC3)cc2)C(=O)O1)c1ccc(Cl)s1` (stereo not shown) [Example 167, 5-Chloro-N-({2-oxo-3-[4-(1-pyrrolidinylsulfonyl)phenyl]-1,3-oxazolidin-5-yl}-methyl)-2-thiophenecarboxamide] registered an IC50 of 500 nM.
